Source: ChEMBL document CHEMBL5154741, “Antibacterial alkylguanidino ureas: Molecular simplification approach, searching for membrane-based MoA” (Eur J Med Chem, 2022)
Each block holds one molecule with its values, some of them ahead of it. Active and inactive are the calls of the source. The rule behind the calls is not given here.

How the values were obtained:
[1] = Hemolytic activity against human RBC at 8 ug/ml incubated for 30 mins (reference value: 0%); assay type: toxicity, cell-based, Erythrocyte; conditions: human red blood cells (erythrocytes), at 8 µg/mL, read-out: Activity
[2] = test system: Bacillus subtilis; assay: Antibacterial activity against Bacillus subtilis ATCC 6633 assessed as bacterial growth inhibition incubated for 18 hrs by CLSI based micro-dilution broth method; assay type: functional
[3] = test system: Cell membrane; assay: Disruption of membrane integrity in Acinetobacter baumannii ATCC 17978 assessed as increase in PI uptake at 16 ug/ml measured after 1 hr by SYTO9/PI staining based fluorometric analysis; assay type: subcellular; conditions: dose 16.0 µg/ml
[4] = test system: Escherichia coli; assay: Antibacterial activity against Escherichia coli CCUG assessed as bacterial growth inhibition incubated for 18 hrs by micro-dilution broth method; assay type: functional
[5] = test system: Cell membrane; assay: Disruption of membrane integrity in Bacillus subtilis ATCC 6633 assessed as increase in PI uptake at 16 ug/ml measured after 15 mins by SYTO9/PI staining based fluorometric analysis; conditions: dose 16.0 µg/ml
[6] = test system: Cell membrane; assay: Disruption of membrane integrity in Pseudomonas aeruginosa ATCC 27853 assessed as increase in PI uptake at 16 ug/ml measured after 1 hr by SYTO9/PI staining based fluorometric analysis; assay type: subcellular; conditions: dose 16.0 µg/ml
[7] = test system: Cell membrane; assay: Disruption of membrane integrity in Escherichia coli MG1655 assessed as increase in PI uptake at 16 ug/ml measured every 15 mins for 6 hrs by SYTO9/PI staining based fluorometric analysis; conditions: dose 16.0 µg/ml
[8] = test system: Cell membrane; assay: Disruption of membrane integrity in Enterococcus faecalis ATCC 19433 assessed as increase in PI uptake at 16 ug/ml measured after 15 mins by SYTO9/PI staining based fluorometric analysis; conditions: dose 16.0 µg/ml
[9] = Apparent permeability of the compound across bacterial inner membrane mimic pure POPG in PBS buffer assessed as membrane retention at pH 7.4 incubated for 5 hrs by PAMPA based UV-Vis spectrophotometric analysis; assay type: ADME, cell membranes; conditions: pH 7.4, 5 h
[10] = Apparent permeability of the compound across bacterial inner membrane mimic pure POPG in PBS buffer at pH 7.4 incubated for 5 hrs by PAMPA based UV-Vis spectrophotometric analysis; assay type: ADME
[11] = test system: Staphylococcus aureus; assay: Antibacterial activity against Staphylococcus aureus ATCC 25923 assessed as bacterial growth inhibition incubated for 18 hrs by micro-dilution broth method; assay type: functional
[12] = Hemolytic activity against human RBC at 2 ug/ml incubated for 30 mins (reference value: 0%); assay type: toxicity, cell-based, Erythrocyte; conditions: human red blood cells (erythrocytes), at 2 µg/mL, read-out: Activity
[13] = Hemolytic activity against human RBC at 64 ug/ml incubated for 30 mins (reference value: 0%); assay type: toxicity, cell-based, Erythrocyte; conditions: human red blood cells (erythrocytes), at 64 µg/mL, read-out: Activity
[14] = Hemolytic activity against human RBC at 1 ug/ml incubated for 30 mins (reference value: 0%); assay type: toxicity, cell-based, Erythrocyte; conditions: human red blood cells (erythrocytes), at 1 µg/mL, read-out: Activity
[15] = test system: Cell membrane; assay: Disruption of membrane integrity in Bacillus subtilis ATCC 6633 assessed as increase in PI uptake at 16 ug/ml measured after 1 hr by SYTO9/PI staining based fluorometric analysis; assay type: subcellular; conditions: dose 16.0 µg/ml
[16] = test system: Cell membrane; assay: Disruption of membrane integrity in Pseudomonas aeruginosa ATCC 27853 assessed as increase in PI uptake at 16 ug/ml measured every 15 mins for 6 hrs by SYTO9/PI staining based fluorometric analysis; conditions: dose 16.0 µg/ml
[17] = test system: Cell membrane; assay: Disruption of membrane integrity in Enterococcus faecalis ATCC 19433 assessed as increase in PI uptake at 16 ug/ml measured after 1 hr by SYTO9/PI staining based fluorometric analysis; assay type: subcellular; conditions: dose 16.0 µg/ml
[18] = test system: Cell membrane; assay: Disruption of membrane integrity in Staphylococcus aureus ATCC 25923 assessed as increase in PI uptake at 16 ug/ml measured after 1 hr by SYTO9/PI staining based fluorometric analysis; conditions: dose 16.0 µg/ml
[19] = test system: Cell membrane; assay: Disruption of membrane integrity in Acinetobacter baumannii ATCC 17978 assessed as increase in PI positive cells at 16 ug/ml measured after 1 hr by SYTO9/PI staining based confocal laser scanning microscope analysis; conditions: dose 16.0 µg/ml
[20] = Hemolytic activity against human RBC at 16 ug/ml incubated for 30 mins relative to control; assay type: toxicity, cell-based, Erythrocyte; conditions: human red blood cells (erythrocytes), at 16 µg/mL, read-out: Activity
[21] = test system: Lipid bilayer; assay: Binding affinity to bacterial membrane mimic POPG large unilamellar vesicle assessed as bathochromic shift at 125 uM measured at t = 0 by UV-Vis spectrophotometric analysis
[22] = test system: Cell membrane; assay: Disruption of membrane integrity in Staphylococcus aureus ATCC 25923 assessed as increase in PI uptake at 16 ug/ml measured every 15 mins for 6 hrs by SYTO9/PI staining based fluorometric analysis; assay type: subcellular; conditions: dose 16.0 µg/ml
[23] = test system: Klebsiella pneumoniae; assay: Antibacterial activity against Klebsiella pneumoniae ATCC 13833 assessed as bacterial growth inhibition incubated for 18 hrs by micro-dilution broth method; assay type: functional
[24] = test system: Cell membrane; assay: Disruption of membrane integrity in Acinetobacter baumannii ATCC 17978 assessed as increase in PI uptake at 16 ug/ml measured after 15 mins by SYTO9/PI staining based fluorometric analysis; conditions: dose 16.0 µg/ml
[25] = test system: Cell membrane; assay: Disruption of membrane integrity in Staphylococcus aureus ATCC 25923 assessed as increase in PI positive cells at 16 ug/ml measured after 1 hr by SYTO9/PI staining based confocal laser scanning microscope analysis; assay type: subcellular; conditions: dose 16.0 µg/ml
[26] = test system: Cell membrane; assay: Disruption of membrane integrity in Bacillus subtilis ATCC 6633 assessed as increase in PI positive cells at 16 ug/ml measured after 1 hr by SYTO9/PI staining based confocal laser scanning microscope analysis; assay type: subcellular; conditions: dose 16.0 µg/ml
[27] = Hemolytic activity against human RBC at 4 ug/ml incubated for 30 mins (reference value: 0%); assay type: toxicity, cell-based, Erythrocyte; conditions: human red blood cells (erythrocytes), at 4 µg/mL, read-out: Activity
[28] = test system: Pseudomonas aeruginosa; assay: Antibacterial activity against Pseudomonas aeruginosa ATCC 27853 assessed as bacterial growth inhibition incubated for 18 hrs by micro-dilution broth method; assay type: functional
[29] = Hemolytic activity against human RBC at 32 ug/ml incubated for 30 mins (reference value: 0%); assay type: toxicity, cell-based, Erythrocyte; conditions: human red blood cells (erythrocytes), at 32 µg/mL, read-out: Activity
[30] = Apparent permeability of the compound across bacterial inner membrane mimic PC-phospholipids in PBS buffer at pH 7.4 incubated for 5 hrs by PAMPA based UV-Vis spectrophotometric analysis; assay type: ADME
[31] = test system: Acinetobacter baumannii; assay: Antibacterial activity against Acinetobacter baumannii ATCC 17978 assessed as bacterial growth inhibition incubated for 18 hrs by micro-dilution broth method; assay type: functional
[32] = test system: Cell membrane; assay: Disruption of membrane integrity in Escherichia coli MG1655 assessed as increase in PI uptake at 16 ug/ml measured after 1 hr by SYTO9/PI staining based fluorometric analysis; assay type: subcellular; conditions: dose 16.0 µg/ml
[33] = test system: Enterococcus faecalis; assay: Antibacterial activity against Enterococcus faecalis ATCC 19433 assessed as bacterial growth inhibition incubated for 18 hrs by micro-dilution broth method; assay type: functional
[34] = test system: Lipid bilayer; assay: Binding affinity to bacterial membrane mimic POPG large unilamellar vesicle assessed as hyperchromic shift at 125 uM measured after 1 hr by UV-Vis spectrophotometric analysis
[35] = test system: Cell membrane; assay: Disruption of membrane integrity in Escherichia coli MG1655 assessed as increase in PI positive cells at 16 ug/ml measured after 1 hr by SYTO9/PI staining based confocal laser scanning microscope analysis; assay type: subcellular; conditions: dose 16.0 µg/ml
[36] = Apparent permeability of the compound across bacterial inner membrane mimic POPE/POPG (6:4) in PBS buffer assessed as membrane retention at pH 7.4 incubated for 5 hrs by PAMPA based UV-Vis spectrophotometric analysis; assay type: ADME, cell membranes; conditions: pH 7.4, 5 h
[37] = Apparent permeability of the compound across bacterial inner membrane mimic POPE/POPG (6:4) in PBS buffer at pH 7.4 incubated for 5 hrs by PAMPA based UV-Vis spectrophotometric analysis; assay type: ADME
[38] = test system: Cell membrane; assay: Disruption of membrane integrity in Enterococcus faecalis ATCC 19433 assessed as increase in PI positive cells at 16 ug/ml measured after 1 hr by SYTO9/PI staining based confocal laser scanning microscope analysis; assay type: subcellular; conditions: dose 16.0 µg/ml
[39] = test system: Cell membrane; assay: Disruption of membrane integrity in Pseudomonas aeruginosa ATCC 27853 assessed as increase in PI positive cells at 16 ug/ml measured after 1 hr by SYTO9/PI staining based confocal laser scanning microscope analysis; assay type: subcellular; conditions: dose 16.0 µg/ml
[40] = test system: Streptococcus pyogenes; assay: Antibacterial activity against Streptococcus pyogenes ATCC 12344 assessed as bacterial growth inhibition incubated for 18 hrs by micro-dilution broth method; assay type: functional
[41] = Apparent permeability of the compound across bacterial inner membrane mimic PC-phospholipids in PBS buffer assessed as membrane retention at pH 7.4 incubated for 5 hrs by PAMPA based UV-Vis spectrophotometric analysis; assay type: ADME, cell membranes; conditions: pH 7.4, 5 h

Structure (SMILES): N=C(N)NCCCCCCCCN(CCCCCCCCN)C(=O)N(CCCCCCCCN)CCCCCCCCNC(=N)N.O=C(O)C(F)(F)F
hemolysis at 0.5 h, 8 ug/ml [1]: 0%
MIC [2]: 0.5 µg/mL
Activity [3]: Active
MIC [4]: 2 µg/mL
Activity [5]: Active
Activity [6]: Active
Activity [7]: Active
Activity [8]: Active
R% [9]: 52.4%
Papp at 5 h [10]: 0.19 ×10⁻⁶ cm/s
MIC [11]: 0.5 µg/mL
hemolysis at 0.5 h, 2 ug/ml [12]: 0%
hemolysis at 0.5 h, 64 ug/ml [13]: 2%
hemolysis at 0.5 h, 1 ug/ml [14]: 0%
Activity [15]: Active
Activity [16]: Active
Activity [17]: Active
Activity [18]: Active
Activity [19]: Active
hemolysis at 0.5 h, 16 ug/ml [20]: 0.6%
Activity [21]: Active
Activity [22]: Active
MIC [23]: 16 µg/mL
Activity [24]: Active
Activity [25]: Active
Activity [26]: Active
hemolysis at 0.5 h, 4 ug/ml [27]: 0%
MIC [28]: 32 µg/mL
hemolysis at 0.5 h, 32 ug/ml [29]: 1.6%
Papp at 5 h [30]: 0.21 ×10⁻⁶ cm/s
MIC [31]: 16 µg/mL
Activity [32]: Active
MIC [33]: 8 µg/mL
Activity [34]: Active
Activity [35]: Active
R% [36]: 47.3%
Papp at 5 h [37]: 0.18 ×10⁻⁶ cm/s
Activity [38]: Active
Activity [39]: Active
MIC [40]: 0.25 µg/mL
R% [41]: 36.3%

Activity [3]: Active
Activity [5]: Active
Activity [6]: Active
Activity [7]: Active
Activity [8]: Active
R% [9]: 46.1%
Papp at 5 h [10]: 1.88 ×10⁻⁶ cm/s
Activity [15]: Active
Activity [16]: Active
Activity [17]: Active
Activity [18]: Active
Activity [19]: Active
Activity [21]: Active
Activity [22]: Active
Activity [24]: Active
Activity [25]: Active
Activity [26]: Active
Activity [32]: Active
Activity [34]: Active
Activity [35]: Active
R% [36]: 42.4%
Papp at 5 h [37]: 0.74 ×10⁻⁶ cm/s
Activity [38]: Active
Activity [39]: Active
Structure (SMILES): N=C(N)NCCCCCCCCN(CCCCCCCCNC(=N)NCC1CC1)C(=O)N(CCCCCCCCNC(=N)N)CCCCCCCCNC(=N)NCC1CC1
hemolysis at 0.5 h, 8 ug/ml [1]: 0.8%
hemolysis at 0.5 h, 2 ug/ml [12]: 0.2%
hemolysis at 0.5 h, 64 ug/ml [13]: 3.4%
hemolysis at 0.5 h, 1 ug/ml [14]: 0%
hemolysis at 0.5 h, 16 ug/ml [20]: 1.2%
hemolysis at 0.5 h, 4 ug/ml [27]: 0.4%
hemolysis at 0.5 h, 32 ug/ml [29]: 2%
